Test results: patent US10125118B2, “Heteroaryl compounds and their use as therapeutic drugs” (Dong-A Socio Holdings Co., Ltd., priority 2015, dated 2018)
pIC50: −log10 of the molar value.

Columns and labels:
[1] = tested on: CD8-MerTK in Ba/F3-CDM cells; assay: In cell MER kinase assay, Ba/F3-CDM cell proliferation without IL-3 (Celltiter-Glo); format: cell-based, murine; conditions: 48 hours compound treatment, read-out: Cell growth inhibition (GI50)
Experimental: To establish an in cell kinase assay for MerTK kinase, the IL-3 dependent Ba/F3 cells of murine lymphoid origin was transfected with CD8-MerTK. […] For a routine cellular assay, Ba/F3-CDM cells were seeded at 2,000 cells per well in 384-well cell culture plate containing DMEM/10% FBS culture media and incubated for 24 hours before addition of compounds pre-diluted in culture media. Following compound treatment, cells were further incubated for 48 hours and the proliferation was measured. To discriminate a Ba/F3 growth inhibition by a specific inhibition of MerTK kinase following compound treatment vs growth inhibition due to a non-specific unintended cytotoxicity of compounds, we routinely carried out control sets of Ba/F3 cells in parallel that grown in IL3-supplemented growth media. In the presence of IL-3, the proliferation of Ba/F3 is no longer dependent on the MerTK activity. Cell growth and proliferation was measured with Celltiter-Glo™ system (Promega, USA) according to the manufacturer's instruction. The half-maximal growth inhibitory concentration (GI50) value was calculated with Prism6.0 software (GraphPad, USA).

[2] = biological target: human c-MER catalytic domain (Homo sapiens (Human), UniProt Q12866); assay: LanthaScreen TR-FRET kinase assay, c-MER; conditions: read-out: Mer TK inhibition (IC50); Biochemical IC50, TR-FRET, 10 uM ATP
Chain of human c-MER catalytic domain (Q12866 587-858): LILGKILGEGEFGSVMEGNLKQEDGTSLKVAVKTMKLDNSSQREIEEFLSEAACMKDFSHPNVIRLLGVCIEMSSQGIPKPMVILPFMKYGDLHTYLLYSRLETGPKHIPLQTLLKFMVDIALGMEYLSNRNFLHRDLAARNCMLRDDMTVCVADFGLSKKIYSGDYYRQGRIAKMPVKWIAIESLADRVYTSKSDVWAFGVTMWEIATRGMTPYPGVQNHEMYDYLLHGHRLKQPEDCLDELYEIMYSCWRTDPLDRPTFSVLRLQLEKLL

SMILES	GI50 [1] [nM]	pIC50 [2]
Cn1cc(-c2cnc(N)c(C(=O)N[C@H]3CCC[C@@H]3OCc3ccc(-c4ccc(CN5CCN(C6CC6)CC5)cc4)cc3)c2)cn1 [Example 184, 2-amino-N-((1S,2S)-2-((4′-((4-cyclopropylpiperazin-1-yl)methyl)-[1,1′-biphenyl]-4-yl)methoxy)cyclopentyl)-5-(1-methyl-1H-pyrazol-4-yl)nicotinamide]	< 100	> 8.00
C[C@@H]1CN(Cc2ccc(-c3ccc(CO[C@H]4CCC[C@@H]4NC(=O)c4cc(-c5cnn(C)c5)cnc4N)cc3)cc2)CCN1 [Example 185, 2-amino-5-(1-methyl-1H-pyrazol-4-yl)-N-((1S,2S)-2-((4′-(((R)-3-methylpiperazin-1-yl)methyl)-[1,1′-biphenyl]-4-yl)methoxy)cyclopentyl)nicotinamide]	100 to 500	> 8.00
C[C@@H]1CN(Cc2ccc(-c3ccc(CO[C@H]4CCC[C@@H]4NC(=O)c4cc(-c5cnn(C)c5)cnc4N)cc3)cc2)CCN1C [Example 186, 2-amino-N-((1S,2S)-2-((4′-(((R)-3,4-dimethylpiperazin-1-yl)-methyl)-[1,1′-biphenyl]-4-yl)methoxy)cyclopentyl)-5-(1-methyl-1H-pyrazol-4-yl)-nicotinamide]	< 100	> 8.00
C[C@@H]1CN(C)CCN1Cc1ccc(-c2ccc(CO[C@H]3CCC[C@@H]3NC(=O)c3cc(-c4cnn(C)c4)cnc3N)cc2)cc1 [Example 187, 2-amino-N-((1S,2S)-2-((4′-(((R)-2,4-dimethylpiperazin-1-yl)-methyl)-[1,1′-biphenyl]-4-yl)methoxy)cyclopentyl)-5-(1-methyl-1H-pyrazol-4-yl)-nicotinamide]	< 100	> 8.00
CCC1CN(Cc2ccc(-c3ccc(CO[C@H]4CCC[C@@H]4NC(=O)c4cc(-c5cnn(C)c5)cnc4N)cc3)cc2)CCN1C (stereo partly drawn) [Example 188, 2-amino-N-((1S,2S)-2-((4′-((3-ethyl-4-methylpiperazin-1-yl)-methyl)-[1,1′-biphenyl]-4-yl)methoxy)cyclopentyl)-5-(1-methyl-1H-pyrazol-4-yl)-nicotinamide]	< 100	> 8.00
C[C@@H]1CN(Cc2ccc(-c3ccc(CO[C@H]4CCC[C@@H]4NC(=O)c4cc(-c5cnn(C)c5)cnc4N)cc3)cc2)C[C@H](C)N1 [Example 189, 2-amino-N-((1S,2S)-2-((4′-((cis-3,5-dimethylpiperazin-1-yl)-methyl)-[1,1′-biphenyl]-4-yl)methoxy)cyclopentyl)-5-(1-methyl-1H-pyrazol-4-yl)-nicotinamide]	100 to 500	> 8.00
C[C@@H]1CN(Cc2ccc(-c3ccc(CO[C@H]4CCC[C@@H]4NC(=O)c4cc(-c5cnn(C)c5)cnc4N)cc3)cc2)C[C@H](C)N1C [Example 190, 2-amino-5-(1-methyl-1H-pyrazol-4-yl)-N-((1S,2S)-2-((4′-((cis-3,4,5-trimethylpiperazin-1-yl)methyl)-[1,1′-biphenyl]-4-yl)methoxy)cyclopentyl)-nicotinamide]	< 100	> 8.00
CC1CN[C@@H](C)CN1Cc1ccc(-c2ccc(CO[C@H]3CCC[C@@H]3NC(=O)c3cc(-c4cnn(C)c4)cnc3N)cc2)cc1 (stereo partly drawn) [Example 191, 2-amino-N-((1S,2S)-2-((4′-((trans-2,5-dimethylpiperazin-1-yl)methyl)-[1,1′-biphenyl]-4-yl)methoxy)cyclopentyl)-5-(1-methyl-1H-pyrazol-4-yl)nicotinamide]	100 to 500	> 8.00
C[C@@H]1CN(C)[C@@H](C)CN1Cc1ccc(-c2ccc(CO[C@H]3CCC[C@@H]3NC(=O)c3cc(-c4cnn(C)c4)cnc3N)cc2)cc1 [Example 192, 2-amino-5-(1-methyl-1H-pyrazol-4-yl)-N-((1S,2S)-2-((4′-(((2R,5S)-2,4,5-trimethylpiperazin-1-yl)methyl)-[1,1′-biphenyl]-4-yl)methoxy)cyclopentyl)nicotinamide]	< 100	> 8.00
CN(C)C1CCN(Cc2ccc(-c3ccc(CO[C@H]4CCC[C@@H]4NC(=O)c4cc(-c5cnn(C)c5)cnc4N)cc3)cc2)C1 (stereo partly drawn) [Example 193, 2-amino-N-((1S,2S)-2-((4′-((3-(dimethylamino)pyrrolidin-1-yl)methyl)-[1,1′-biphenyl]-4-yl)methoxy)cyclopentyl)-5-(1-methyl-1H-pyrazol-4-yl)nicotinamide]	< 100	> 8.00
CN1CCN(Cc2ccc(-c3ccc(CO[C@H]4CCC[C@@H]4NC(=O)c4nc(-c5cnn(C)c5)cnc4N)cc3)cc2)CC1 [Example 194, 3-amino-6-(1-methyl-1H-pyrazol-4-yl)-N-((1S,2S)-2-((4′-((4-methylpiperazin-1-yl)methyl)-[1,1′-biphenyl]-4-yl)methoxy)cyclopentyl)pyrazine-2-carboxamide]	< 100	> 8.00
CN1CCN(Cc2ccc(-c3ccc(CO[C@H]4CCC[C@@H]4NC(=O)c4cc(-c5cnn(C)c5)cnc4N)cc3)cc2F)CC1 [Example 195, 2-amino-N-((1S,2S)-2-((3′-fluoro-4′-((4-methylpiperazin-1-yl)-methyl)-[1,1′-biphenyl]-4-yl)methoxy)cyclopentyl)-5-(1-methyl-1H-pyrazol-4-yl)-nicotinamide]	< 100	> 8.00
CN1CCN(Cc2c(F)cc(-c3ccc(CO[C@H]4CCC[C@@H]4NC(=O)c4cc(-c5cnn(C)c5)cnc4N)cc3)cc2F)CC1 [Example 196, 2-amino-N-((1S,2S)-2-((3′,5′-difluoro-4′-((4-methylpiperazin-1-yl)methyl)-[1,1′-biphenyl]-4-yl)methoxy)cyclopentyl)-5-(1-methyl-1H-pyrazol-4-yl)nicotinamide]	100 to 500	> 8.00
CN1CCN(Cc2ccc(-c3ccc(CO[C@H]4CCC[C@@H]4NC(=O)c4cc(-c5cnn(C)c5)cnc4N)cc3)cc2C(F)(F)F)CC1 [Example 197, 2-amino-5-(1-methyl-1H-pyrazol-4-yl)-N-((1S,2S)-2-((4′-((4-methylpiperazin-1-yl)methyl)-3′-(trifluoromethyl)-[1,1′-biphenyl]-4-yl)methoxy)-cyclopentyl)nicotinamide]	< 100	> 8.00
Cc1cc(-c2ccc(CO[C@H]3CCC[C@@H]3NC(=O)c3cc(-c4cnn(C)c4)cnc3N)cc2)ccc1CN1CCN(C)CC1 [Example 198, 2-amino-5-(1-methyl-1H-pyrazol-4-yl)-N-((1S,2S)-2-((3′-methyl-4′-((4-methylpiperazin-1-yl)methyl)-[1,1′-biphenyl]-4-yl)methoxy)cyclopentyl)-nicotinamide]	< 100	> 8.00
CN1CCN(Cc2ccc(-c3ccc(CO[C@H]4CCC[C@@H]4NC(=O)c4cc(-c5cnn(C)c5)cnc4N)cc3)cc2O)CC1 [Example 199, 2-amino-N-((1S,2S)-2-((3′-hydroxy-4′-((4-methylpiperazin-1-yl)methyl)-[1,1′-biphenyl]-4-yl)methoxy)cyclopentyl)-5-(1-methyl-1H-pyrazol-4-yl)nicotinamide]	< 100	> 8.00
CN1CCN(Cc2ccc(-c3ccc(CO[C@H]4CCC[C@@H]4NC(=O)c4cc(-c5cnn(C)c5)cnc4N)cc3)cc2[N+](=O)[O-])CC1 [Example 200, 2-amino-5-(1-methyl-1H-pyrazol-4-yl)-N-((1S,2S)-2-((4′-((4-methylpiperazin-1-yl)methyl)-3′-nitro-[1,1′-biphenyl]-4-yl)methoxy)-cyclopentyl)nicotinamide]	100 to 500	> 8.00
CN1CCN(Cc2ccc(-c3ccc(CO[C@H]4CCC[C@@H]4NC(=O)c4cc(-c5cnn(C)c5)cnc4N)cc3)c(Cl)c2)CC1 [Example 202, 2-amino-N-((1S,2S)-2-((2′-chloro-4′-((4-methylpiperazin-1-yl)-methyl)-[1,1′-biphenyl]-4-yl)methoxy)cyclopentyl)-5-(1-methyl-1H-pyrazol-4-yl)-nicotinamide]	100 to 500	> 8.00
CN1CCN(Cc2ccc(-c3ccc(CO[C@H]4CCC[C@@H]4NC(=O)c4cc(-c5cnn(C)c5)cnc4N)cc3)cn2)CC1 [Example 203, 2-amino-5-(1-methyl-1H-pyrazol-4-yl)-N-((1S,2S)-2-((4-(6-((4-methylpiperazin-1-yl)methyl)pyridin-3-yl)benzyl)oxy)cyclopentyl)nicotinamide]	100 to 500	> 8.00
Cn1cc(-c2cnc(N)c(C(=O)N[C@H]3CCC[C@@H]3OCc3ccc(-c4ccc(CN5CCN(CCO)CC5)c(C(F)(F)F)c4)cc3)c2)cn1 [Example 205, 2-amino-N-((1S,2S)-2-((4′-((4-(2-hydroxyethyl)piperazin-1-yl)methyl)-3′-(trifluoromethyl)-[1,1′-biphenyl]-4-yl)methoxy)cyclopentyl)-5-(1-methyl-1H-pyrazol-4-yl)nicotinamide]	< 100	> 8.00
Cn1cc(-c2cnc(N)c(C(=O)N[C@H]3CCC[C@@H]3OCc3ccc(-c4ccc(CN5CCN(CCO)CC5)cc4Cl)cc3)c2)cn1 [Example 206, 2-amino-N-((1S,2S)-2-((2′-chloro-4′-((4-(2-hydroxyethyl)-piperazin-1-yl)methyl)-[1,1′-biphenyl]-4-yl)methoxy)cyclopentyl)-5-(1-methyl-1H-pyrazol-4-yl)nicotinamide]	100 to 500	> 8.00
